Test results taken from patent US20160158200A1, “Combinations of Hepatitis C Virus Inhibitors” (priority 2013, published 2016).

What follows are compounds tested on HCV genotype-1a variant with glutamine 30 changed to glutamate in the NS5A protein. Details: test compound titrated with BMS-790052 fixed at 200 nM; genotype 1a Q30E replicon.
Type: cell-based
Method in brief: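 Synergy was assessed by combining several fixed amounts of an NS5A-targeting compound with a titration of the second compound of interest.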

Compound	Fold-Synergistic 1a (Q30E) [fold]
CC(C)(C)[C@H](NC(=O)C1CCCCO1)c1nc(-c2ccc(-c3ccc(-c4c[nH]c([C@@H](NC(=O)C5CCCCO5)C(C)(C)C)n4)cc3)cc2)c[nH]1 (stereo partly shown) [Compound Y-6]	>100
CC(C)[C@H](NC(=O)C1CCC(F)(F)CC1)c1nc2ccc(C#CC#Cc3ccc4nc([C@@H](NC(=O)C5CCC(F)(F)CC5)C(C)C)[nH]c4c3)cc2[nH]1 [Compound B52]	>100
COC(=O)N(C)C1(C(=O)N[C@H](c2ncc(C#Cc3ccc4cc(-c5cnc([C@@H](NC(=O)C6(N(C)C(=O)OC)CC6)C(C)(C)C)[nH]5)ccc4c3)[nH]2)C(C)(C)C)CC1 [Compound B5]	>100
CC(C)[C@H](NC(=O)C(F)F)c1ncc(-c2ccc(-c3ccc(-c4cnc([C@@H](NC(=O)C(F)F)C(C)C)[nH]4)cc3)cc2)[nH]1 [Compound S-11]	>100
CO[C@H](C)[C@H](NC(=O)C1CCC(F)(F)CC1)c1nc(-c2ccc(-c3ccc(-c4c[nH]c([C@@H](NC(=O)C5CCC(F)(F)CC5)[C@@H](C)OC)n4)cc3)cc2)c[nH]1 [Compound L-98]	<10
O=C(N[C@H]1CCC[C@H]1c1nc(-c2ccc(-c3ccc(-c4c[nH]c([C@@H]5CCC[C@@H]5NC(=O)C5CCC(F)(F)CC5)n4)cc3)cc2)c[nH]1)C1CCC(F)(F)CC1 [Compound L-106]	>100
CC(O)(CF)C(=O)N[C@H](c1nc(-c2ccc(-c3ccc(-c4c[nH]c([C@@H](NC(=O)C(C)(O)CF)C(C)(C)C)n4)cc3)cc2)c[nH]1)C(C)(C)C (single isomer, unassigned) [Compound N-139C]	>100
CC(C)(C)C(NC(=O)C(C)(O)C(F)(F)F)c1nc(-c2ccc(-c3ccc(-c4c[nH]c(C(NC(=O)C(C)(O)C(F)(F)F)C(C)(C)C)n4)cc3)cc2)c[nH]1.O=C(O)C(F)(F)F.O=C(O)C(F)(F)F (single isomer, unassigned) [Compound L-66a]	>100
CC(C)(C)OC(=O)N1CCCC[C@@H]1C(=O)N[C@H](c1nc(-c2ccc(-c3ccc(-c4c[nH]c([C@@H](NC(=O)[C@H]5CCCCN5C(=O)OC(C)(C)C)C(C)(C)C)n4)cc3)cc2)c[nH]1)C(C)(C)C [Compound L-16]	>100
CCCC[C@@H](CC(=O)OC(C)(C)C)C(=O)N[C@H](c1nc(-c2ccc(-c3ccc(-c4c[nH]c([C@@H](NC(=O)[C@@H](CCCC)CC(=O)OC(C)(C)C)C(C)(C)C)n4)cc3)cc2)c[nH]1)C(C)(C)C [Compound S-260]	>100
CC(C)(C)[C@H](NC(=O)C(=O)N1C(C)(C)CCCC1(C)C)c1nc(-c2ccc(-c3ccc(-c4c[nH]c([C@@H](NC(=O)C(=O)N5C(C)(C)CCCC5(C)C)C(C)(C)C)n4)cc3)cc2)c[nH]1 [Compound W-248]	>100
CC(C)(C(=O)N[C@H](c1nc(-c2ccc(-c3ccc(-c4c[nH]c([C@@H](NC(=O)C(C)(C)C5CCC(F)(F)CC5)C(C)(C)C)n4)cc3)cc2)c[nH]1)C(C)(C)C)C1CCC(F)(F)CC1 [Compound P-150]	>100
CC1(C(O)C(C)(C)C(=O)N[C@H](c2nc(-c3ccc(-c4ccc(-c5c[nH]c([C@@H](NC(=O)C(C)(C)C(O)C6(C)CC6)C(C)(C)C)n5)cc4)cc3)c[nH]2)C(C)(C)C)CC1 (single isomer, unassigned) [Compound N-151B]	>100
O=C(c1ccc(-c2ccccc2)cc1)N1CCC[C@H]1c1ncc(-c2ccc(-c3ccc(-c4cnc([C@@H]5CCCN5C(=O)c5ccc(-c6ccccc6)cc5)[nH]4)cc3)cc2)[nH]1 [Compound S-117]	>10
CC1(O)CCC(C(=O)N[C@H](c2nc(-c3ccc(-c4ccc(-c5c[nH]c([C@@H](NC(=O)C6CCC(C)(O)CC6)C(C)(C)C)n5)cc4)cc3)c[nH]2)C(C)(C)C)CC1 (stereo partly shown) [Compound W-175]	>100
CC(C)(C)[C@H](NC(=O)C1CC12CCOCC2)c1ncc(-c2ccc(-c3ccc(-c4cnc([C@@H](NC(=O)C5CC56CCOCC6)C(C)(C)C)[nH]4)cc3)cc2)[nH]1 (single isomer, unassigned) [Compound B70]	>100
CC(C)[C@H](NC(=O)c1ccc2nccnc2c1)c1ncc(-c2ccc(-c3ccc(-c4cnc([C@@H](NC(=O)c5ccc6nccnc6c5)C(C)C)[nH]4)cc3)cc2)[nH]1 [Compound S-19]	>100
CC(C)[C@H](NC(=O)c1cccc(Cl)c1)c1ncc(-c2ccc(-c3ccc(-c4cnc([C@@H](NC(=O)c5cccc(Cl)c5)C(C)C)[nH]4)cc3)cc2)[nH]1 [Compound S-74]	>100
Cc1nn(-c2ccccc2)nc1C(=O)N[C@H](c1ncc(-c2ccc(-c3ccc(-c4cnc([C@@H](NC(=O)c5nn(-c6ccccc6)nc5C)C(C)C)[nH]4)cc3)cc2)[nH]1)C(C)C [Compound S-95]	>10
CC(C)(C)[C@H](NC(=O)[C@H]1C[C@@H]2[C@H](C1)C2(F)F)c1nc(-c2ccc(-c3ccc(-c4c[nH]c([C@@H](NC(=O)[C@H]5C[C@@H]6[C@H](C5)C6(F)F)C(C)(C)C)n4)cc3)cc2)c[nH]1 [Compound Y-10]	>100

Compound	Fold-Synergistic 1a (Q30E) [fold]
COCC(NC(=O)C1(C(F)(F)F)CCC1)c1nc(-c2ccc(-c3ccc(-c4c[nH]c(C(COC)NC(=O)C5(C(F)(F)F)CCC5)n4)cc3)cc2)c[nH]1 [Compound L-104]	>100
CC(C)(C)C(=O)N[C@H](c1ncc(-c2ccc(-c3ccc(-c4cnc([C@@H](NC(=O)C(C)(C)C)C(C)(C)CF)[nH]4)cc3)cc2)[nH]1)C(C)(C)CF [Compound Y-68]	>100
O=C(c1cnc(Cl)c(Cl)c1)N1CCC[C@H]1c1ncc(-c2ccc(-c3ccc(C4=CNC([C@@H]5CCCN5C(=O)c5cnc(Cl)c(Cl)c5)N4)cc3)cc2)[nH]1 (stereo partly shown) [Compound S-133]	<10
CC(C)(C(=O)N[C@H](c1nc(-c2ccc(-c3ccc(-c4c[nH]c([C@@H](NC(=O)C(C)(C)C(O)c5ccccc5F)C(C)(C)C)n4)cc3)cc2)c[nH]1)C(C)(C)C)C(O)c1ccccc1F (single isomer, unassigned) [Compound N-124A]	>100
CC1(C)CCCC(C)(C(=O)NC(c2nc(-c3ccc(-c4ccc(-c5c[nH]c(C(NC(=O)C6(C)CCCC(C)(C)O6)C(C)(C)C)n5)cc4)cc3)c[nH]2)C(C)(C)C)O1 (mixture of isomers) [Compound W-163]	>100
CC(C)(C)C(NC(=O)C1(CO)CCCOC1)c1nc(-c2ccc(-c3ccc(-c4c[nH]c(C(NC(=O)C5(CO)CCCOC5)C(C)(C)C)n4)cc3)cc2)c[nH]1 (mixture of isomers) [Compound Y-101]	>100
O=C(c1ccccc1Oc1ccccc1)N1CCC[C@H]1c1ncc(-c2ccc(-c3ccc(-c4cnc([C@@H]5CCCN5C(=O)c5ccccc5Oc5ccccc5)[nH]4)cc3)cc2)[nH]1 [Compound S-114]	<10
CC(C)(C)[C@H](NC(=O)c1ncccc1F)c1nc(-c2ccc(-c3ccc(-c4c[nH]c([C@@H](NC(=O)c5ncccc5F)C(C)(C)C)n4)cc3)cc2)c[nH]1 [Compound P-22]	>100
O=C(C1CC1)N1CCC[C@H]1c1ncc(-c2ccc(-c3ccc(-c4cnc([C@@H]5CCCN5C(=O)C5CC5)[nH]4)cc3)cc2)[nH]1 [Compound S-109]	<10
CC(C)(C)[C@H](NC(=O)C1(C2(O)CCC(F)(F)CC2)CC1)c1ncc(-c2ccc(C#Cc3ccc4nc([C@@H](NC(=O)C5(C6(O)CCC(F)(F)CC6)CC5)C(C)(C)C)[nH]c4c3)cc2)[nH]1 [Compound B48B]	>100
CC(C)[C@H](NC(=O)c1cccc(F)c1)c1ncc(-c2ccc(-c3ccc(-c4cnc([C@@H](NC(=O)c5cccc(F)c5)C(C)C)[nH]4)cc3)cc2)[nH]1 [Compound S-73]	>100
C=C1C[C@@H](C(=O)N[C@H](c2nc(-c3ccc(-c4ccc(-c5c[nH]c([C@@H](NC(=O)[C@@H]6CC(=C)CN6C(=O)OC(C)(C)C)C(C)C)n5)cc4)cc3)c[nH]2)C(C)C)N(C(=O)OC(C)(C)C)C1 [Compound W-89]	>100
CC(C)[C@H](NC(=O)C1(CF)CC1)c1ncc(-c2ccc(-c3ccc(-c4cnc([C@@H](NC(=O)C5(CF)CC5)C(C)C)[nH]4)cc3)cc2)[nH]1 [Compound P-73]	>100
CC1([C@H](NC(=O)C2CCC(F)(F)CC2)c2nc3ccc(C#Cc4ccc5nc([C@@H](NC(=O)C6CCC(F)(F)CC6)C6(C)CC6)[nH]c5c4)cc3[nH]2)CC1 [Compound B67]	>100
CCC(C)(C)C(=O)N[C@H](c1ncc(-c2ccc(-c3ccc(-c4cnc([C@@H](NC(=O)C(C)(C)CC)C(C)C)[nH]4)cc3)cc2)[nH]1)C(C)C [Compound P-68]	>100
CC(C)[C@H](NC(=O)C(C)(C)C(F)(F)F)c1ncc(-c2ccc(-c3ccc(-c4cnc([C@@H](NC(=O)C(C)(C)C(F)(F)F)C(C)C)[nH]4)cc3)cc2)[nH]1 [Compound P-87]	>100
C[C@@H](C(=O)N[C@H](c1nc(-c2ccc(-c3ccc(-c4c[nH]c([C@@H](NC(=O)[C@H](C)c5ccccc5)C(C)(C)C)n4)cc3)cc2)c[nH]1)C(C)(C)C)c1ccccc1 [Compound N-61]	>100
CCOC(=O)C(C)(C)C(=O)N[C@H](c1nc(-c2ccc(-c3ccc(-c4c[nH]c([C@@H](NC(=O)C(C)(C)C(=O)OCC)C(C)(C)C)n4)cc3)cc2)c[nH]1)C(C)(C)C.O=C(O)C(F)(F)F.O=C(O)C(F)(F)F [Compound W-126]	>100
CC(C)[C@H](NC(=O)C1CCC(F)(F)CC1)c1ncc(-c2ccc3cc(-c4ccc5nc([C@@H](NC(=O)C6CCC(F)(F)CC6)C(C)C)[nH]c5c4)ccc3c2)[nH]1 [Compound B55]	>100
COC(=O)N[C@H](C(=O)NC1(c2nc(-c3ccc(-c4ccc(-c5c[nH]c(C6(NC(=O)[C@@H](NC(=O)OC)C(C)C)CCC6)n5)cc4)cc3)c[nH]2)CCC1)C(C)C [Compound N-10]	<10
